Values joined by “and” are separate entries in the source; they are usually repeats but may differ in a detail not shown here. Identical values can stand only once.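 These data come from cells grown in 96-well plates and exposed to compound for 48 hours at five concentrations. GI50: concentration for 50% inhibition of growth. TGI marks complete inhibition of growth.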
These molecules were tested on MDA-MB-468 breast (assay: NCI tumour cell line growth inhibition, 48 h).
`CCC(=C(c1ccc(OCCN2CCCC2)cc1)c1ccc(OCCN2CCCC2)cc1)c1ccc(Cl)cc1` gave a GI50 of 0.533 µM and a TGI of 1.07 µM.
`NC(Cc1c[nH]c2cccc(F)c12)C(=O)O` (configuration not stated) was tested, and the GI50 was 50.8 µM and 494 µM and the TGI was 2050 µM.
`COc1cccc(-c2nn(-c3ccccc3)cc2-c2ccnc(NCCCNS(=O)(=O)c3ccc(C(F)(F)F)cc3)c2)c1` was tested, and the GI50 was 3.11 µM and the TGI was > 100 µM.
With `CC(=O)/C=C/c1ccc(N(CCO)Cc2ccc(C(C)(C)C)cc2)cc1` the GI50 was 31.1 µM and the TGI was 127 µM.
`CC[Si](CC)(CC)OC1[C@@H](O[Si](CC)(CC)CC)[C@@H](CNC(=O)NC)O[C@H]1n1cnc2c(NC(=O)Nc3ccccc3)ncnc21` (some centres not stated) showed a GI50 of 4.24 µM and a TGI of 57.4 µM.
With `CC[C@H](CO)Nc1ccc2ncc(C#Cc3cncc(C(=O)Nc4ccc(CN5CCN(C)CC5)c(C(F)(F)F)c4)c3)n2n1` the GI50 was 0.126 µM and the TGI was 0.376 µM.
`C=C1C(=O)O[C@H]2[C@H]1CC/C(COC(=O)N[C@H](Cc1c[nH]c3ccccc13)C(=O)OC)=C\CC[C@@]1(C)O[C@@H]21` was tested, and the GI50 was 1.02 µM and the TGI was 3.92 µM.
With `CN(C)C/C=C/C(=O)Nc1cc2c(Nc3cccc(Cl)c3F)ncnc2cc1OCCOC(F)F` the GI50 was < 0.01 µM.
`Cc1nn(-c2ccccc2)c2nc(C)n(-c3ccc(Br)cc3)c(=O)c12` was tested, and the GI50 was 0.476 µM and the TGI was 53 µM.
`Nc1no[n+]([O-])c1-c1nnc2c(n1)-c1ccccc1C2=O` was tested, and the GI50 was 2.19 µM and the TGI was 5.64 µM.
Molecule `CCCCC[C@H]1C/C=C2/C(=O)C(Cl)=C[C@@H]2C/C=C\CCCC(=O)O1` has a GI50 of 0.357 µM and a TGI of 1.04 µM.
With `CCOC(=O)c1cc2c(n1Cc1ccccc1OC)-c1oncc1CCC2` the GI50 was 2.95 µM and the TGI was > 100 µM.
`O=C(Nc1ccc(Cl)cc1)N1CCN(c2ccc3nncn3n2)CC1` showed a GI50 of 26.9 µM and a TGI of 99.3 µM.
`CN1CCN(c2ccc(Nc3nc(NCCCNS(=O)(=O)c4ccc(F)cc4)c4sccc4n3)cc2)CC1` was tested, and the GI50 was 10.2 µM and the TGI was 22.6 µM.
`OCC1OC(n2cnc3c(NCc4ccco4)ncnc32)C(O)C1O` (configuration not stated) was tested, and the GI50 was 1.36 µM and the TGI was 3.16 µM.
With `CC1(C)CN(CCNc2nccc(-c3c(-c4cccc(O)c4)nc4sccn34)n2)S(=O)(=O)N1` the GI50 was 7.03 µM and the TGI was > 33.2 µM.
In the case of `C=CCN1C(=O)[C@]2(SC1=S)[C@H](c1cccc(Cl)c1)CN(C)[C@]21C(=O)NC2C=CC(Cl)=C[C@H]21` (some centres not stated), the GI50 is reported as 3.24 µM and the TGI is reported as 14.3 µM.
`COc1ccc2nc3ccccc3c(NCc3ccccc3)c2c1` showed a GI50 of 1.77 µM and a TGI of 4.05 µM.
Work on `CN(c1ccc(F)cc1)S(=O)(=O)c1ccc(-c2cnc(C3CC3)o2)cc1` yielded a GI50 of 0.0544 µM and a TGI of 8.98 µM.
`CCOC(=O)c1cc2c(n1Cc1cc(OC)cc(OC)c1)-c1oncc1CC2` showed a GI50 of 0.0364 µM and a TGI of 0.268 µM.
Molecule `CCC(C(=O)[C@@H](C)[C@@H](O)[C@H](C)[C@@H]1O[C@@H]([C@@H](CC)C(=O)ONC(=O)c2ccccc2)CC[C@@H]1C)[C@H]1O[C@]2(C=CC(=O)[C@]3(CC[C@@](C)([C@H]4CC[C@](O)(CC)[C@H](C)O4)O3)O2)[C@H](C)C[C@@H]1C` (some centres not stated) has a GI50 of 0.0992 µM and a TGI of 0.979 µM.
`COc1cc(NCCC2CCCCN2)c2ncccc2c1OC` (configuration not stated) showed a GI50 of 2.07 µM and a TGI of 4.18 µM.
`O=C(c1ccc(Nc2nccc(NCCCCNc3ccnc4cc(Cl)ccc34)n2)cc1)N1CCCCC1` showed a GI50 of 1.47 µM and a TGI of 3.47 µM.
With `CCN(CC)CCCC(C)Nc1ccnc(/C=C/c2ccc(Cl)cc2)c1` (configuration not stated) the GI50 was 1.45 µM and the TGI was 2.86 µM.
For `C=C1C(=O)O[C@H]2[C@H]1CC/C(COC(=O)/C=C\C(=O)NCc1ccc(Cn3c(=O)sn(-c4ccc(Cl)cc4)c3=O)cc1)=C\CC[C@@]1(C)O[C@@H]21`, the GI50 was 0.568 µM and the TGI was 1.37 µM.
Molecule `Nc1nc(N)c(-c2ccc(Cl)c(Cl)c2)c(CP(Cl)(Cl)(Cl)Br)n1` has a GI50 of 7.45 µM and a TGI of 36.1 µM.
In the case of `CCOC(=O)c1cc(C(=O)c2cc(OC)c(OC)c(OC)c2)n2ccc(-c3cc[n+](CC(=O)c4cc(OC)c(OC)c(OC)c4)cc3)cc12`, the GI50 is reported as 1.94 µM and the TGI is reported as 3.81 µM.
For `O=C(CC1Sc2ccccc2NC1=O)NNc1ccc(F)cc1` (configuration not stated), the GI50 was > 100 µM and the TGI was > 100 µM.
In the case of `CCN(CC)CCCNc1cc(OC)c(OC)c2cccnc12`, the GI50 is reported as 3.85 µM and the TGI is reported as 14.6 µM.
With `CC1(C)CC[C@]2(CO)CC[C@]3(C)C(=CC[C@@H]4[C@@]5(C)CCNCC(C)(C)[C@@H]5CC[C@]43C)[C@@H]2C1` the GI50 was 1.8 µM and the TGI was 3.79 µM.
`NCCCNc1nc2ccccc2c2c(=O)c3cc(F)cc(Cl)c3sc12` gave a GI50 of 1.69 µM and a TGI of 3.71 µM.
`COc1cc(/C=C/c2ccnc3ccccc23)cc(OC)c1OC` was tested, and the GI50 was 1.19 µM and the TGI was 5.67 µM.
`Cc1ccc(NC2=CC(=O)C(=O)c3ccccc32)cc1` showed a GI50 of 1.97 µM and a TGI of 5.74 µM.
With `O=c1[nH]c2ccccc2n1C1CCN(CCOc2ccccc2)CC1` the GI50 was 6.25 µM and the TGI was 57.8 µM.
`CC(C)(C)OC(=O)N1Cc2cc3ccccc3nc2C1CO` (configuration not stated) was tested, and the GI50 was > 100 µM and the TGI was > 100 µM.
`COc1ccc(NC(=O)c2cccc(C3CCc4c(cc(OC)c(OC)c4OC)O3)c2)cc1` (configuration not stated) was tested, and the GI50 was 2.6 µM and the TGI was > 100 µM.
With `C[C@@H](Oc1cc(-c2cnn(C3CCNCC3)c2)cnc1N)c1c(Cl)cc(F)cc1Cl` the GI50 was 1.31 µM and the TGI was 2.92 µM.
`Cn1cc(-c2nc(-c3cn(C)c4ncccc34)cs2)c2ccccc21` showed a GI50 of 0.169 µM and a TGI of 0.719 µM.
Molecule `O=C(CCl)Nc1ccc(Cc2ccc(NC(=O)CCl)cc2)cc1` has a GI50 of 2.03 µM and a TGI of 5.57 µM.

— PubChem BioAssay (NCI)
